For the assay, the target named is T1, Des1 (Homo sapiens, UniProt O15121).
T1 sequence (O15121 1-323): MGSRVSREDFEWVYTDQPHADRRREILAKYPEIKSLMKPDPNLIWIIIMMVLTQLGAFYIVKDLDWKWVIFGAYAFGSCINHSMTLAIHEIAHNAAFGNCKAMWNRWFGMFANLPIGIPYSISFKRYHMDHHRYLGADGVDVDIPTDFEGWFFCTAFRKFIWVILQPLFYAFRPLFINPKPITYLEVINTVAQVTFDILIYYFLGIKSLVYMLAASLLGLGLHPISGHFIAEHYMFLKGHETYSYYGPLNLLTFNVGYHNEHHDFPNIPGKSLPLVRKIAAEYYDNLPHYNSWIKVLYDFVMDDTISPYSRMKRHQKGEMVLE
The assay can be described thus: Jurkat T cell measurement of conversion of dihydroceramide to ceramide (Des1 activity, LC-MS/MS of NBD-C6-ceramide). Particulars: Jurkat clone E6-1 cells, 10 μM NBD-C6-dihydroceramide, 3 hours at 37° C.; for IC50: read-out: Des1 IC50; for inhibition at 0.5 µM: 0.5 uM compound, read-out: Des1 % Inhib (0.5 uM). Details: endogenous in cells; host or cells: Jurkat clone E6-1. Format: cell-based. The protocol: Jurkat T Cell Measurement of Conversion of Dihydroceramide to Ceramide
Jurkat clone E6-1 cells were grown and then seeded at 10^6 cells/mL in a 96-well plate (400 μL in each well. The cells were administered 100 μL of cell culture media containing 50-μM NBD-C6-dihydroceramide (Des1 substrate), affording a final concentration of substrate of 10 μM. The cells were incubated with substrate at 4° C. for 30 minutes. Following the incubation at 4° C., the cell suspension was centrifuged at 1200 rpm for 3 minutes, and the cell pellet is resuspended in 400 μL of fresh media containing various concentrations of either fenretinide (known Des1 inhibitor control compound) or test article. The final concentrations of control compound and test compounds were tested in a range from 0-10 μM. The cells and compounds were incubated at 37° C. for 3 hours. Following the 3-hour incubation, the plate was centrifuged at 2500 g for 3 minutes at 4° C., followed by collection and transfer of 200 μL of the supernatant to a new 96-well plate with 300 μL of methanol an containing appropriate internal standards for liquid chromatography/tandem mass spectroscopy (LC/MS/MS) analysis (internal standard: 500 nM labetalol and 100 nM alprazolam). The samples were vortexed for 2 minutes followed by centrifugation at 3,220 g for 20 minutes. Following centrifugation, 200 μL of the supernatant was transferred to a new 96-well plate for LC-MS/MS analysis to determine the amount of NBD-C6-ceramide (Des1 product) produced. The assay was typically performed in duplicate. A reduction of at least 30% compared to vehicle control (0 μM test article) is indicative of an active compound, and a reduction of 75% compared to vehicle control is preferred.

Some results are limits rather than exact numbers.

For orientation: IC50 means the concentration that gives 50% inhibition. As for `O=C(Nc1ccc(O)cn1)NC1CCN(c2ccc(F)cn2)CC1` [Example 49, 1-[1-(5-fluoropyridin-2-yl)piperidin-4-yl]-3-(5-hydroxypyridin-2-yl)urea], the IC50 turned out to be 0.13 µM.

With `O=S(=O)(Nc1ccc(O)cn1)C1CCN(c2ccc(Cl)cn2)CC1` [Example 67, 1-(5-chloropyridin-2-yl)-N-(5-hydroxypyridin-2-yl)piperidine-4-sulfonamide], the inhibition at 0.5 µM is 85.3%.

For `O=S(=O)(Nc1ccc(O)cn1)N1CCN(c2ccc(Cl)cn2)CC1` [Example 73, 4-(5-Chloropyridin-2-yl)-N-(5-hydroxypyridin-2-yl)piperazine-1-sulfonamide], the inhibition at 0.5 µM came out at 41.9%.

With `O=C(Nc1ccc(O)cn1)N1CCN(c2ccccn2)CC1` [Example 17, N-(5-hydroxypyridin-2-yl)-4-(pyridin-2-yl) piperazine-1-carboxamide], the inhibition at 0.5 µM was 76.9%.

On to `COc1ccc(C2CCN(C(=O)Nc3ccc(O)cn3)CC2)cc1` [Example 6, N-(5-Hydroxypyridin-2-yl)-4-(4-methoxyphenyl)piperidine-1-carboxamide], for which the inhibition at 0.5 µM came out at 81.8% and the 50% inhibitory concentration (IC50) was 0.069 µM.

In the case of `O=C(OCc1ccccc1)N1CCC(S(=O)(=O)Nc2ccc(O)cn2)CC1` [Example 63, Benzyl 4-[(5-hydroxypyridin-2-yl)sulfamoyl]piperidine-1-carboxylate], the IC50 was greater than 1 µM.

Consider `O=C(Nc1ccc(O)cn1)NC1CCN(c2ccc(F)cc2)CC1` [Example 51, 1-[1-(4-fluorophenyl)piperidin-4-yl]-3-(5-hydroxypyridin-2-yl)urea], for which the inhibition at 0.5 µM was determined as 91.5% and the IC50 is 0.092 µM.

Consider `O=C(Nc1ccc(O)cn1)N1CCN(Cc2ccc(F)cc2)CC1` [Example 38, 4-[(4-Fluorophenyl)methyl]-N-(5-hydroxypyridin-2-yl)piperazine-1-carboxamide], for which the inhibition at 0.5 µM was found to be 91.5% and the IC50 came to 0.06 µM.

In the case of `O=C(Nc1ccc(O)cn1)N1CCN(c2cnn(-c3ccccc3)c2)CC1` [Example 80, N-(5-hydroxypyridin-2-yl)-4-(1-phenyl-1H-pyrazol-4-yl)piperazine-1-carboxamide], the inhibition at 0.5 µM worked out at 56.9%.

`CC(C)(C)c1ccc(S(=O)(=O)Nc2ccc(O)cn2)cc1` [Example 62, 4-tert-Butyl-N-(5-hydroxypyridin-2-yl)benzene-1-sulfonamide]: the inhibition at 0.5 µM amounted to 69.4% and the IC50 turned out to be 0.31 µM.

As to `O=C(Nc1ccc(O)cn1)N1CCCN(c2ccc(C(F)(F)F)cn2)CC1` [Example 86, N-(5-hydroxypyridin-2-yl)-4-[5-(trifluoromethyl)pyridin-2-yl]-1,4-diazepane-1-carboxamide], the inhibition at 0.5 µM is 84.6% and the half-maximal inhibitory concentration (IC50) worked out at 0.078 µM.

For `N#Cc1ccc(N2CCN(C(=O)Nc3ccc(O)cn3)CC2)cc1` [Example 27, 4-(4-cyanophenyl)-N-(5-hydroxypyridin-2-yl)piperazine-1-carboxamide], the IC50 came out at 0.011 µM.

Turning to `O=C(Nc1ccc(O)cn1)N1CCN(c2ccc(Cl)cn2)CC1` [Example 22, 4-(5-chloropyridin-2-yl)-N-(5-hydroxypyridin-2-yl)piperazine-1-carboxamide], the IC50 was 0.014 µM.

Take `O=C(Nc1ccc(O)cn1)OC1CCN(c2ccc(F)cn2)CC1` [Example 56, 1-(5-fluoropyridin-2-yl)piperidin-4-yl N-(5-hydroxypyridin-2-yl)carbamate]: the inhibition at 0.5 µM was 94.7% and the 50% inhibitory concentration (IC50) is 0.028 µM.

With `O=C(Nc1ccc(O)cn1)OC1CCN(c2ccccc2)CC1` [Example 44, 1-Phenylpiperidin-4-yl N-(5-hydroxypyridin-2-yl)carbamate], the inhibition at 0.5 µM came to 95% and the IC50 worked out at 0.008 µM.

As for `O=C(Nc1ccc(O)cn1)N1CCCCCC1` [Example 11, N-(5-hydroxypyridin-2-yl)azepane-1-carboxamide], the inhibition at 0.5 µM is 38.5%.

As to `O=C(Nc1ccc(O)cn1)NC1CCOCC1` [Example 20, 3-(5-Hydroxypyridin-2-yl)-1-(oxan-4-yl)urea], the inhibition at 0.5 µM is 19.6%.

For `O=C(Nc1ccc(O)cc1)N1CCN(c2ccc(F)cc2F)CC1` [Example 28, 4-(2,4-difluorophenyl)-N-(4-hydroxyphenyl)piperazine-1-carboxamide], the inhibition at 0.5 µM is 57.8%.

Regarding `O=S(=O)(Nc1ccc(O)cn1)C1CCN(Cc2ccccc2)CC1` [Example 65, 1-benzyl-N-(5-hydroxypyridin-2-yl)piperidine-4-sulfonamide], the IC50 was greater than 1 µM.

On to `O=C(Nc1ccc(O)cn1)N1CCC(c2ccc(Cl)cc2)CC1` [Example 4, 4-(4-Chlorophenyl)-N-(5-hydroxypyridin-2-yl)piperidine-1-carboxamide], for which the inhibition at 0.5 µM was found to be 94.3% and the 50% inhibitory concentration (IC50) was determined as 0.023 µM.

Take `O=C(Nc1ccc(O)cn1)O[C@H]1CC[C@H](c2ccccc2)CC1` [Example 43, (1r,4r)-4-Phenylcyclohexyl N-(5-hydroxypyridin-2-yl)carbamate]: the inhibition at 0.5 µM stood at 97% and the IC50 is 0.006 µM.

Consider `O=C(Nc1ccc(O)cn1)OC1CCN(c2ccc(Cl)cc2Cl)CC1` [Example 58, 1-(2,4-dichlorophenyl)piperidin-4-yl N-(5-hydroxypyridin-2-yl)carbamate], for which the inhibition at 0.5 µM is 96.8% and the IC50 was 0.004 µM.

In the case of `O=C(Nc1ccc(O)cn1)OC1CCCCC1` [Example 42, Cyclohexyl N-(5-hydroxypyridin-2-yl)carbamate], the inhibition at 0.5 µM stood at 81.4% and the half-inhibitory concentration (IC50) came out at 0.035 µM.

On to `O=C(Nc1ccc(O)cn1)N1CCC(c2ccc(F)cc2)CC1` [Example 2, N-[5-[Hydroxy]pyridin-2-yl]-4-(4-fluorophenyl)piperidine-1-carboxamide], for which the inhibition at 0.5 µM was 91.7% and the IC50 amounted to 0.025 µM.

Regarding `O=C(Nc1ccc(O)cn1)N1CCN(c2ccc(Cl)cc2Cl)CC1` [Example 23, 4-(2,4-dichlorophenyl)-N-(5-hydroxypyridin-2-yl)piperazine-1-carboxamide], the IC50 was found to be 0.01 µM.

Turning to `O=C(Nc1ccc(O)cn1)N1CCCN(c2ccc(F)cn2)CC1` [Example 84, 4-(5-fluoropyridin-2-yl)-N-(5-hydroxypyridin-2-yl)-1,4-diazepane-1-carboxamide], the IC50 turned out to be 0.1 µM.

Turning to `O=C(Nc1ccc(O)cn1)N1CCC(c2ccccc2)CC1` [Example 1, N-(5-Hydroxypyridin-2-yl)-4-phenylpiperidine-1-carboxamide], the inhibition at 0.5 µM amounted to 89.6% and the IC50 came out at 0.042 µM.

As for `O=C(Nc1ccc(O)cn1)NC1CCCN(c2ccc(F)cc2)C1` (stereo not drawn) [Example 47, 1-[1-(4-fluorophenyl)piperidin-3-yl]-3-(5-hydroxypyridin-2-yl)urea], the inhibition at 0.5 µM turned out to be 51.8%.

As for `O=C(Nc1ccc(O)cn1)OC1CCN(c2ccc(C(F)(F)F)cc2)CC1` [Example 57, 1-[4-(trifluoromethyl)phenyl] piperidin-4-yl N-(5-hydroxypyridin-2-yl) carbamate], the inhibition at 0.5 µM was determined as 95.5% and the IC50 was found to be 0.001 µM.

On to `O=C(Nc1ccc(O)cn1)OC1CCN(c2ccc(Cl)cc2)CC1` [Example 55, 1-(4-chlorophenyl)piperidin-4-yl N-(5-hydroxypyridin-2-yl)carbamate], for which the inhibition at 0.5 µM amounted to 96.5% and the IC50 came to 0.002 µM.

Source of the values: patent US12247019B2 (Centaurus Therapeutics, priority 2018, dated 2025).
